Here are results for four compounds from US20130158007A1 (KEMPHARM, INC., priority 2010, published 2013).

Counter-ions that a name gives are not always drawn.

The target of one series is histamine H1 receptor (Homo sapiens, UniProt P35367). Conditions: cited from earlier work.
Another series has as its target serotonin 5-HT7 receptor (Homo sapiens, UniProt P34969). Conditions: cited from earlier work.
The target in series [1] is T1, serotonin 5-HT1A receptor (Homo sapiens, UniProt P08908).
T1 sequence (P08908 1-422): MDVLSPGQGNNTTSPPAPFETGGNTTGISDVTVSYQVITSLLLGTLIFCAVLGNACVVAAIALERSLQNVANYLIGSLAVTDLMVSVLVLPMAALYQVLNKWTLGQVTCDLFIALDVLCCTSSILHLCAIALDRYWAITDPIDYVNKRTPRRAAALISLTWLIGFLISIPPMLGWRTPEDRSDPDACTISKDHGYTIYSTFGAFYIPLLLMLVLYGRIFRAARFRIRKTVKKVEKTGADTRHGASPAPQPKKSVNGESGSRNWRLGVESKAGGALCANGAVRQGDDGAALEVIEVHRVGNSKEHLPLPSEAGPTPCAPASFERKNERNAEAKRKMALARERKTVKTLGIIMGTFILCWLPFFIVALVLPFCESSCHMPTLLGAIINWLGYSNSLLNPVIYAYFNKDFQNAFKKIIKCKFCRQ
Conditions: cited from earlier work.

For series [2], the target named is serotonin 5-HT1E receptor (Homo sapiens, UniProt P28566). Conditions: cited from earlier work.
A further series has as its target T2, M1 muscarinic receptor (Homo sapiens, UniProt P11229).
T2 sequence (P11229 1-460): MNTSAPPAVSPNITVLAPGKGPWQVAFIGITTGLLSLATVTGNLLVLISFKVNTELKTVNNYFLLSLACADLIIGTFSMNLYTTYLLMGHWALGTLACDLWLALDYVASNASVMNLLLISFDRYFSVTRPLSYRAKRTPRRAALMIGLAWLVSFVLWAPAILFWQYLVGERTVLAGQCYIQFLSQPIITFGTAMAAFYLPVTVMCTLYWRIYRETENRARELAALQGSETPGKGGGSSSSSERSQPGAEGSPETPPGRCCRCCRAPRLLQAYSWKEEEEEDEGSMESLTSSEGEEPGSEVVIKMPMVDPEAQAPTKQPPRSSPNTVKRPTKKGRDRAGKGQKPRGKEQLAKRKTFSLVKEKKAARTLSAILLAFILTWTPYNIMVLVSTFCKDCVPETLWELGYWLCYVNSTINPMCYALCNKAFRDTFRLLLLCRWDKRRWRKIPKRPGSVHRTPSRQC
Conditions: cited from earlier work.

The target of series [3] is serotonin 5-HT2B receptor (Homo sapiens, UniProt P41595). Conditions: cited from earlier work.
For the next series, the target named is T3, 5-HT1A receptor (Homo sapiens, UniProt P08908).
T3 sequence (P08908 1-422): T1 sequence (P08908 1-422)
Conditions: relative to quetiapine; cited from earlier work.

The target in another series is M3 muscarinic receptor (Homo sapiens, UniProt P20309). Conditions: cited from earlier work.
A further series has as its target 5-HT2A receptor (Homo sapiens, UniProt P28223). Conditions: cited from earlier work.
The target of a further series is T4, M5 muscarinic receptor (Homo sapiens, UniProt P08912).
T4 sequence (P08912 1-532): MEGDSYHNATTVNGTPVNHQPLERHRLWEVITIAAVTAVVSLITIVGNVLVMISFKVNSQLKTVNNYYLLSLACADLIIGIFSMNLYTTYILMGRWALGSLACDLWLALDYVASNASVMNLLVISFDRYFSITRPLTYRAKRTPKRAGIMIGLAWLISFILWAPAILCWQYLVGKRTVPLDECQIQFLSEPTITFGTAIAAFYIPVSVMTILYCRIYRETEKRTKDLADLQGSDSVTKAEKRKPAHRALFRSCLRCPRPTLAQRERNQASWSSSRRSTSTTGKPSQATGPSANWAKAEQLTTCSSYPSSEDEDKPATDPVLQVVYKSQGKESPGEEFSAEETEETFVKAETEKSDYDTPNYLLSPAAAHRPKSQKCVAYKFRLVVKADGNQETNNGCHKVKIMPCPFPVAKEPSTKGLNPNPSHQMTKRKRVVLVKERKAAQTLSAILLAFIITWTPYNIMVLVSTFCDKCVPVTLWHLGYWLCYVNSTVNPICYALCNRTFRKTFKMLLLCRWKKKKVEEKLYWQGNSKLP
Conditions: cited from earlier work.

Series [4] deals with norepinephrine reuptake transporter (NET) (Homo sapiens, UniProt P23975). Conditions: cited from earlier work.
The target in a further series is T5, α1B-adrenergic receptor (Homo sapiens, UniProt P35368).
T5 sequence (P35368 1-520): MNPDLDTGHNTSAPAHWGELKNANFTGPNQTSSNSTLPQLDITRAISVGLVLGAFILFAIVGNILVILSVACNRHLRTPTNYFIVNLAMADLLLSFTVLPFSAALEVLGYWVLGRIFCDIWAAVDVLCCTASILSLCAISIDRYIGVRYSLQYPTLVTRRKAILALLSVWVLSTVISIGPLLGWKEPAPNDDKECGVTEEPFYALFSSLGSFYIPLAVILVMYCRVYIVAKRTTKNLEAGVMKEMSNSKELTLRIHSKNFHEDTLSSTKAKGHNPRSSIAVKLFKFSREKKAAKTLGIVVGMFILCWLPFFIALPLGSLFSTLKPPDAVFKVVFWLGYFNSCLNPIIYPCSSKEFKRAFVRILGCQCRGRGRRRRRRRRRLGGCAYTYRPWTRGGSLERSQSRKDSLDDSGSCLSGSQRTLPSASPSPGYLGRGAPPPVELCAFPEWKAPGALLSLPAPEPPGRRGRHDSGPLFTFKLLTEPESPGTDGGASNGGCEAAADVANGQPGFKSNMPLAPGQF
Conditions: cited from earlier work.

For series [5] the following is noted: oral solution.
The test system of a further series is a1-adrenergic receptors. Conditions: cited from earlier work.
The next series has as its target dopaminergic D2 receptor (Homo sapiens, UniProt P14416). Conditions: cerebral receptors; cited from earlier work.
The next series deals with dopaminergic D1 receptor (Homo sapiens, UniProt P21728). Conditions: cerebral receptors; cited from earlier work.
The conditions of series [6]: cited from earlier work.
In the next series the test system is α2-adrenergic receptors. Conditions: cited from earlier work.
The subject of another series is leptin. Conditions: chronic oral administration for 6 weeks; cited from earlier work.
For series [7] the following is noted: clinical trials; cited from earlier work.
For series [8] the following is noted: in vivo; cited from earlier work.
For series [9] the following is noted: patients, cited from earlier work.

Chain of norepinephrine reuptake transporter (NET) (P23975 whole entry): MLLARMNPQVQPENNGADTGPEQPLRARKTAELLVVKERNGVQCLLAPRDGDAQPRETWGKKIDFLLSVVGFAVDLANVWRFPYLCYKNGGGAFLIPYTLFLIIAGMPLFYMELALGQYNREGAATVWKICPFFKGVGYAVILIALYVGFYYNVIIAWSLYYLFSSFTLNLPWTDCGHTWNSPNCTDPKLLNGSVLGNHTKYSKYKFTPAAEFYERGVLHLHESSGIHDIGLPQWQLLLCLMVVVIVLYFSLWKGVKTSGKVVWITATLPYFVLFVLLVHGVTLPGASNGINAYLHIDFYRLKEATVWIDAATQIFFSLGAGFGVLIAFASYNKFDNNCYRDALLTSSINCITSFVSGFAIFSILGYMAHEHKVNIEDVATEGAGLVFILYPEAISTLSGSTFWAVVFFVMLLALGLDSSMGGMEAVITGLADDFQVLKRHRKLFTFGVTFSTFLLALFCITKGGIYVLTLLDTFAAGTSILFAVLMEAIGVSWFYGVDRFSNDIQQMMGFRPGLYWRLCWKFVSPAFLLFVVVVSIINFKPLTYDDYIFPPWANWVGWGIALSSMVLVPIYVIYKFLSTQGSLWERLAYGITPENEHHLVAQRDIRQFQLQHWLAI
Chain of histamine H1 receptor (P35367 whole entry, species assumed): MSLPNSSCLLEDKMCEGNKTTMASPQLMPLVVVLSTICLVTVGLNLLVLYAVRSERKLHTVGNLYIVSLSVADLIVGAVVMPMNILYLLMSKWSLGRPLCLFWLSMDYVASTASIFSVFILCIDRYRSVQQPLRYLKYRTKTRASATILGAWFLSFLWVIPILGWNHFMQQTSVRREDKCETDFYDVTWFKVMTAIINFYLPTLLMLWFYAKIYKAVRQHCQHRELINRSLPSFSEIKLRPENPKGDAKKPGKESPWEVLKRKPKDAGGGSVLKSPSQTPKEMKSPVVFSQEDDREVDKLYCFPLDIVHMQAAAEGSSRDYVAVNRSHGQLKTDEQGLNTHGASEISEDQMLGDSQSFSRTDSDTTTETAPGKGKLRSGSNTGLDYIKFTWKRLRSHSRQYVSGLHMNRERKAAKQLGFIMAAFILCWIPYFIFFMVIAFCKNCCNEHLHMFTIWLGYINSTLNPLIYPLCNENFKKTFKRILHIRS
Chain of M3 muscarinic receptor (P20309 whole entry): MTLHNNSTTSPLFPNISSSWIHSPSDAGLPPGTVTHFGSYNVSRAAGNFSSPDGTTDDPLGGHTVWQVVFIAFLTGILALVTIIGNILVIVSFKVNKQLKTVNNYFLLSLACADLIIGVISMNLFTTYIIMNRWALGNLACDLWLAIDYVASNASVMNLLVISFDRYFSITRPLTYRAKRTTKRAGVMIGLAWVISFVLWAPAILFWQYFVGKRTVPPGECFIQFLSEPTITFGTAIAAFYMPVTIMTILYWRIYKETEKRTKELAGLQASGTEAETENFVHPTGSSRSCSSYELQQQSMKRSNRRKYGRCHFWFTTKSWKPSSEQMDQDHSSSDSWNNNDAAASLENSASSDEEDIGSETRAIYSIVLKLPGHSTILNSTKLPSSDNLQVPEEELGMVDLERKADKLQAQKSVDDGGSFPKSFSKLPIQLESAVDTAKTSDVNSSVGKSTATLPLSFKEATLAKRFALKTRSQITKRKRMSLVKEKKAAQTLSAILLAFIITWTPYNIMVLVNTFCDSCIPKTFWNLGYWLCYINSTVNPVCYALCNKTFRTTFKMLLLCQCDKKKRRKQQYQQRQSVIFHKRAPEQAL
Chain of serotonin 5-HT1E receptor (P28566 whole entry): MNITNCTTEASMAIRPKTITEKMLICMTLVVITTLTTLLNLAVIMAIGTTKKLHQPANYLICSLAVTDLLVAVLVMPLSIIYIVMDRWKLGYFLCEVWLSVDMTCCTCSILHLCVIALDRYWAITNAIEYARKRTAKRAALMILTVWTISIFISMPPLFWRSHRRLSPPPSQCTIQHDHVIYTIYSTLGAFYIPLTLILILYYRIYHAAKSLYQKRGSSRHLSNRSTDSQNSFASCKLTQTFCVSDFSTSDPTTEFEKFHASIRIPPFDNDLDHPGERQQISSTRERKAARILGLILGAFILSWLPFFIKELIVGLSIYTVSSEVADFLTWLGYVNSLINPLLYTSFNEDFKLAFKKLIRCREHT
Chain of dopaminergic D1 receptor (P21728 whole entry): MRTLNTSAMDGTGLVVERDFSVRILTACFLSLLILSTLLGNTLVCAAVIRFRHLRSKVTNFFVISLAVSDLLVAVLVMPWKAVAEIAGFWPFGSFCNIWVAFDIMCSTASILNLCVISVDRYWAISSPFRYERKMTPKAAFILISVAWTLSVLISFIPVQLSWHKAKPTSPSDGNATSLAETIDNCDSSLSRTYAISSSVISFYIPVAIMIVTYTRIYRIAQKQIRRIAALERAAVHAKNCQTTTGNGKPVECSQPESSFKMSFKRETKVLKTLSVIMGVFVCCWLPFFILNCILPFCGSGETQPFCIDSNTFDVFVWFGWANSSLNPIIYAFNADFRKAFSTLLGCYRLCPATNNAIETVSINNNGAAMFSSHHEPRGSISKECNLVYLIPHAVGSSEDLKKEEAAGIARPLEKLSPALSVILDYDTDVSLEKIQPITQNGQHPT
Chain of serotonin 5-HT7 receptor (P34969 whole entry): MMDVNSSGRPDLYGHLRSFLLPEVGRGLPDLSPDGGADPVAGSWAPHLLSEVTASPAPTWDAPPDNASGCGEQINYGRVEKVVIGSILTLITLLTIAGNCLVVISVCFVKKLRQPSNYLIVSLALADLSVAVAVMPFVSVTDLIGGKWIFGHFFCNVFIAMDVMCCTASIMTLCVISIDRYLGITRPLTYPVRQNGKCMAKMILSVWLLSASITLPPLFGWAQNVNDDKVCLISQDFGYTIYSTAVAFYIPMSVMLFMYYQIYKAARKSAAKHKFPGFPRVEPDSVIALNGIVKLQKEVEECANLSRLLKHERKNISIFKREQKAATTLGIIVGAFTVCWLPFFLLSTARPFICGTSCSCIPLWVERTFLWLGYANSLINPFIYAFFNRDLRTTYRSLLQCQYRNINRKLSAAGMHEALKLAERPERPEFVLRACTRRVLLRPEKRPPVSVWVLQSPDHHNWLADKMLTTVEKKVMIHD
Chain of serotonin 5-HT2B receptor (P41595 whole entry): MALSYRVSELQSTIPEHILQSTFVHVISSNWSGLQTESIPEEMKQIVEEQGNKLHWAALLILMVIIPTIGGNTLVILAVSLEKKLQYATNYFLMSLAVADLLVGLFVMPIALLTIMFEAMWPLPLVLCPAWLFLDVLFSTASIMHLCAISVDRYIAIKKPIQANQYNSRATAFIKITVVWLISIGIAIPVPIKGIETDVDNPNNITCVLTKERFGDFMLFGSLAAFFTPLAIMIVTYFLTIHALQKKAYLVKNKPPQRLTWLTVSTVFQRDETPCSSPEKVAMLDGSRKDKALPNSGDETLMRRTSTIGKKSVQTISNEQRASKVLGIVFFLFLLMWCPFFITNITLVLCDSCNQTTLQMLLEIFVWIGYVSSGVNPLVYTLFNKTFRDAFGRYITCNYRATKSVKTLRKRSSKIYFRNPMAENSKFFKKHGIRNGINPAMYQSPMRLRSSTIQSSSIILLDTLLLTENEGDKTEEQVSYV
Chain of dopaminergic D2 receptor (P14416 whole entry): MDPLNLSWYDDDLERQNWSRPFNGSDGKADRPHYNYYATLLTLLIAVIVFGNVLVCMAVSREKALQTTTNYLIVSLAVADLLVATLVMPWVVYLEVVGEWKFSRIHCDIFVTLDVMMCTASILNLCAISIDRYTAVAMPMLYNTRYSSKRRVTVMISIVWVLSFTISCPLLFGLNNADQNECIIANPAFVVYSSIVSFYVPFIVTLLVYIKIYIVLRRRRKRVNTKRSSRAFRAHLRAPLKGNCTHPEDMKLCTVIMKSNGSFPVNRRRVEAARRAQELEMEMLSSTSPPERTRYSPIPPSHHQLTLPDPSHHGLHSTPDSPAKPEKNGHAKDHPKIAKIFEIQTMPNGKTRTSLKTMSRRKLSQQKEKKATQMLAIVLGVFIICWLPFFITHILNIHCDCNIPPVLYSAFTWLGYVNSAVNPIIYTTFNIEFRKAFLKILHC
Chain of 5-HT2A receptor (P28223 whole entry): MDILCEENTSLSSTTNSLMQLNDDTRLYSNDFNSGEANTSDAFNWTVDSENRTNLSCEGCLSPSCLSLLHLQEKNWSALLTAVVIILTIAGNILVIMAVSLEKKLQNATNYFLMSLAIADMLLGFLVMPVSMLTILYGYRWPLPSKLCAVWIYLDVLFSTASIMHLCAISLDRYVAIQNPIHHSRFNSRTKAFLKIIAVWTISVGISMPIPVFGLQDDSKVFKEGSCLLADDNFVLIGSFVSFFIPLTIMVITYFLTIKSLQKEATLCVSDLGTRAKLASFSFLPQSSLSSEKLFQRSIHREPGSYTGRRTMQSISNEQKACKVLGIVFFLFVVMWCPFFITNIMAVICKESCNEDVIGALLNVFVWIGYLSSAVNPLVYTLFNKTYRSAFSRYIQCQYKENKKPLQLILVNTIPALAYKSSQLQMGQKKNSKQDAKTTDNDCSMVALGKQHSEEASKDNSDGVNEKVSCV

In the case of `c1ccc2c(c1)N=C(N1CCNCC1)c1ccccc1S2` [N-desalkyl-quetiapine], the “affinity” value on histamine H1 receptor is “high affinity”; on serotonin 5-HT7 receptor, “moderate affinities”; in series [1], “moderate affinities”; in [2], “moderate affinities”; at M1 muscarinic receptor, “moderate affinities”; in series [3] it was “moderate affinities”. The “affinity” value (on M3 muscarinic receptor; at 5-HT2A receptor; on M5 muscarinic receptor; in series [4]; at α1B-adrenergic receptor) was “moderate affinities” in each case. In addition, the “potency at the 5-HT1A receptor, fold more potent than quetiapine” value on 5-HT1A receptor was 10 fold. For the same compound, the “avidity for inhibiting human NET, fold higher than quetiapine” value in series [4] (relative to quetiapine) is “about 100 fold”.
`OCCOCCN1CCN(C2=Nc3ccccc3Sc3ccccc32)CC1` [quetiapine fumarate]: the “solubility for dosing via oral gavage in rats” value in series [5] was “not soluble enough”.
For `OCCOCCN1CCN(C2=Nc3ccccc3Sc3ccccc32)CC1` [quetiapine, 2-(2-(4-(dibenzo[b,f][1,4]thiazepin-11-yl)piperazin-1-yl)ethoxy)ethanol], the “affinity” value is reported as “moderate affinity” with a1-adrenergic receptors, “major affinity” at dopaminergic D2 receptor, “major affinity” on dopaminergic D1 receptor and “moderate affinity” in the series on α2-adrenergic receptors. Moreover, the “terminal half-life time for elimination” value in series [6] (in vivo) was “about 7 hours”. Further, in series [6] (oral), the Absolute bioavailability was 9%. The “increase in leptin release” value in the series on leptin is “about 37%”. For the same compound, the “prolongation of the QT interval” value in [7] is recorded as “small insignificant prolongations”.
Consider `CCCC(CCC)C(=O)O` [valproic acid, 2-propylpentanoic acid], for which the “response rate in bipolar depression” value in [8] is on record as ~30%. Moreover, the time to response in series [9] (acute mania) is reported as 1-2 weeks. In series [9] (placebo effect 20-30%), the “response rate in acute mania” value was “around 50%”.
